Laboratory results taken from the Deep4Chem optical property database.

Assay: solvent given as SMILES

For N#Cc1c(-n2c3ccccc3c3ccccc32)cc(N2c3ccccc3C(c3ccccc3)(c3ccccc3)c3ccccc32)cc1-n1c2ccccc2c2ccccc21, which absorption maximum (in Cc1ccccc1) is on record?
The absorption maximum was 368 nm.

Which results are given for CN1C(C(=O)Nc2ccccn2)=C([O-])c2sccc2S1(=O)=O?
absorption maximum (in CC#N): 382 nm; absorption maximum (in CCCCO): 377 nm; absorption maximum (in CCCO): 376 nm; absorption maximum (in CCO): 375 nm; absorption maximum (in CO): 373 nm

Which absorption maximum (in ClC(Cl)Cl) does the source give for CCCCCCCCCCCCOc1cc2c3c(ccc4c5c(SCCCCCCCCCCCC)cc6c7c(ccc(c1c34)c75)C(=O)N(C1CCCCC1)C6=O)C(=O)N(C1CCCCC1)C2=O here?
The absorption maximum was 568 nm.

For CCOC(=O)/C=C/c1ccc(N(C)C)cc1, which absorption maximum (in C1CCCCC1) is on record?
The absorption maximum was 353 nm.

And the absorption maximum (in C1CCOC1)?
The absorption maximum was 362 nm.

And the absorption maximum (in C1COCCO1)?
Its absorption maximum is 359 nm.

And the absorption maximum (in CC#N)?
Its absorption maximum is 363 nm.

What about the absorption maximum (in CCCCCCCCO) of the same compound?
Its absorption maximum is 363 nm.

And the absorption maximum (in CCCCCCO)?
Its absorption maximum is 365 nm.

What about the absorption maximum (in CCCCO) of the same compound?
Its absorption maximum is 363 nm.

What about the absorption maximum (in CCCO) of the same compound?
The absorption maximum was 364 nm.

And the absorption maximum (in CCO)?
The absorption maximum was 363 nm.

And the absorption maximum (in CCOC(C)=O)?
The absorption maximum was 360 nm.

What about the absorption maximum (in CO) of the same compound?
The absorption maximum was 362 nm.

And the absorption maximum (in Cc1ccccc1)?
Its absorption maximum is 362 nm.

And the absorption maximum (in O)?
The absorption maximum was 373 nm.

And the absorption maximum (in c1ccccc1)?
Its absorption maximum is 363 nm.

Which absorption maximum (in O) does the source give for CC[n+]1c(-c2ccccc2)c2cc(NC(=O)NCC[NH3+])ccc2c2ccc(NC(=O)NCC[NH3+])cc21 here?
Its absorption maximum is 438 nm.

With C(=C\c1c2ccccc2cc2ccccc12)/c1ccc2ccccc2c1 as the compound, how does the absorption maximum (in CC1CCCCC1) read?
The absorption maximum was 386 nm.

And the absorption maximum (in CC#N)?
Its absorption maximum is 387 nm.

With CCOC(=O)/C=C/C1=C(c2ccc(C)cc2)C2=Nc3c(-c4ccc(C)cc4)cc(-c4ccc(C)cc4)n3[B-](F)(F)[N+]2=C1c1ccc(C)cc1 as the compound, how does the absorption maximum (in ClC(Cl)Cl) read?
Its absorption maximum is 663 nm.

Which absorption maximum (in CC#N) does the source give for O=C1c2ccccc2-c2c(-c3ccccc3O)[nH]c(=O)n21 here?
The absorption maximum was 393 nm.

What about the absorption maximum (in CO) of the same compound?
The absorption maximum was 396 nm.

And the absorption maximum (in ClCCl)?
The absorption maximum was 394 nm.

For C(=C\c1cc(/C=C/c2ccc(N(c3ccccc3)c3ccccc3)cc2)nc(/C=C/c2ccc(N(c3ccccc3)c3ccccc3)cc2)n1)/c1ccc(N(c2ccccc2)c2ccccc2)cc1, which absorption maximum (in ClCCl) is on record?
Its absorption maximum is 415 nm.

With CC(C)c1cccc(C(C)C)c1-n1c(=O)c2ccc3c4ccc5c(=O)n(-c6c(C(C)C)cccc6C(C)C)c(=O)c6cc7c(-c8ccccn8)nc8cc(c1=O)c2c3c8c7c4c56 as the compound, how does the absorption maximum (in ClC(Cl)Cl) read?
Its absorption maximum is 474 nm.

Which absorption maximum (in CC#N) does the source give for F[B-]1(F)OC(c2ccc3c(c2)Cc2ccccc2-3)=CC(c2ccccc2)=[O+]1 here?
Its absorption maximum is 412 nm.

What does the source list for Oc1ccc2ccccc2c1-c1nc(-c2ccccc2)c2ccccn12?
absorption maximum (in C1CCCCC1): 361 nm; absorption maximum (in CC#N): 355 nm; absorption maximum (in CO): 343 nm; absorption maximum (in ClCCl): 362 nm; absorption maximum (in O): 355 nm

For CCCC1=Cc2nc1ccc1[nH]c(cc1CCO)c1nc(ccc3[nH]c2cc3CCC)C(CCC)=C1, which absorption maximum (in Cc1ccccc1) is on record?
Its absorption maximum is 637 nm.

With CCCCN(CCCC)c1ccc(C#Cc2cc(C#Cc3cc(C(F)(F)F)cc(C(F)(F)F)c3)c(C#Cc3cc(C(F)(F)F)cc(C(F)(F)F)c3)cc2C#Cc2ccc(N(CCCC)CCCC)cc2)cc1 as the compound, how does the absorption maximum (in ClCCl) read?
The absorption maximum was 410 nm.

What does the source list for N#Cc1cc2ccccc2[nH]1?
absorption maximum (in C1COCCO1): 281.6 nm; absorption maximum (in CC#N): 279.69 nm

With CC1(C)c2cccc(-c3nc(-c4ccccc4)nc(-c4ccccc4)n3)c2Oc2c(-n3c4ccccc4c4ccccc43)cccc21 as the compound, how does the absorption maximum (in Cc1ccccc1) read?
Its absorption maximum is 341 nm.

Which absorption maximum (in CC#N) does the source give for c1ccc2c(c1)nc1ccccn12 here?
The absorption maximum was 344 nm.

Which absorption maximum (in CC#N) does the source give for Cn1cc(-c2nc3ccccc3nc2/C=C/N2CCCC2)c2ccccc21 here?
Its absorption maximum is 440 nm.

With CC1(C)C(/C=C/C2=C(Oc3ccc(CCN=C=S)cc3Cl)C(=C/C=C3/N(CCCS(=O)(=O)[O-])c4ccccc4C3(C)C)/CCC2)=[N+](CCCS(=O)(=O)[O-])c2ccccc21 as the compound, how does the absorption maximum (in CO) read?
Its absorption maximum is 768 nm.

With CCC1=C(C)C2=Cc3ccccc3B(O)N2C1=O as the compound, how does the absorption maximum (in CC#N) read?
The absorption maximum was 358 nm.

What about the absorption maximum (in CCCCCC) of the same compound?
Its absorption maximum is 378 nm.

And the absorption maximum (in CO)?
Its absorption maximum is 359 nm.

What about the absorption maximum (in CS(C)=O) of the same compound?
Its absorption maximum is 361 nm.

What about the absorption maximum (in ClC(Cl)Cl) of the same compound?
The absorption maximum was 362 nm.

For C(=C(c1ccccc1)c1ccccc1)c1ccc(-c2ccc(-c3nc4c5ccccc5c5ccccc5c4n3-c3cccc(-c4ccc(C=C(c5ccccc5)c5ccccc5)cc4)c3)cc2)cc1, which absorption maximum (in C1CCOC1) is on record?
The absorption maximum was 340 nm.

Which absorption maximum (in C1CCOC1) does the source give for CCCCCCOc1cc(C=C2c3ccccc3-c3ccccc32)c(OCCCCCC)cc1C=C1c2ccccc2C=Cc2ccccc21 here?
Its absorption maximum is 397 nm.

Which absorption maximum (in ClCCl) does the source give for CCCCC1=C(CCCC)c2cccc3c2c(cc2nc4ccccc4nc23)O1 here?
Its absorption maximum is 503 nm.

Which results are given for CCC1(CC)c2cc(C#Cc3cc(C#Cc4ccc5c(c4)C(CC)(CC)c4cc(N(c6ccccc6)c6ccccc6)ccc4-5)c4ccc5c(C#Cc6ccc7c(c6)C(CC)(CC)c6cc(N(c8ccccc8)c8ccccc8)ccc6-7)cc(C#Cc6ccc7c(c6)C(CC)(CC)c6cc(N(c8ccccc8)c8ccccc8)ccc6-7)c6ccc3c4c65)ccc2-c2ccc(N(c3ccccc3)c3ccccc3)cc21?
absorption maximum (in C1CCCCC1): 500 nm; absorption maximum (in C1CCOC1): 506 nm; absorption maximum (in CCOC(C)=O): 502 nm; absorption maximum (in CN(C)C=O): 506 nm; absorption maximum (in Cc1ccccc1): 503 nm; absorption maximum (in ClC(Cl)Cl): 503 nm; absorption maximum (in ClCCl): 504 nm
